Literature values, collected in patent US11958977B2, “Fluorescently labeled polysaccharide, preparation method therefor, and use thereof” (SUZHOU BAIYUAN GENT CO., LTD., priority 2018, dated 2024).
Structures can show the parent of a compound that is named as a salt.

Settings: Solvent: 0.1M H2SO4

Quantum yield of the reference compound: 0.56
Compound: C=C[C@H]1C[N@@]2CC[C@H]1C[C@H]2[C@H](O)c1ccnc2ccc(OC)cc12 [quinine sulfate]
